Legend:
Test in all cases: MIC, CLSI broth microdilution
Assay type in all cases: cell-based
[1] = system: S. aureus ASAU1031 (Fluoroquinolone-resistant); conditions: Table 2
Description: (§1) Minimum inhibitory concentrations (MIC) were determined by reference Clinical and Laboratory Standards Institute (CLSI) broth microdilution methods per M7-A7 [2006]. Quality control ranges utilizing E. coli ATCC 25922, P. aeruginosa ATCC 27853 and S. aureus ATCC 29213, and interpretive criteria for comparator agents were as published in CLSI M100-S17 [2007]. Briefly, serial two-fold dilutions of the test compounds were prepared at 2× concentration in Mueller Hinton Broth. The compound dilutions were mixed in 96-well assay plates in a 1:1 ratio with bacterial inoculum. The inoculum was prepared by suspension of a colony from an agar plate that was prepared the previous day. Bacteria were suspended in sterile saline and added to each assay plate to obtain a final concentration of 5×10^5 CFU/mL. The plates were incubated at 35° C. for 20 hours in ambient air.

[2] = system: S. pneumoniae ASPN1027 (Fluoroquinolone-resistant); conditions: Table 2
Description: as §1

[3] = system: E. coli AECO001 (Fluoroquinolone susceptible, ATCC25922); conditions: Table 2, 35° C., 20 hours
Description: as §1

[4] = system: E. coli AECO066 (Fluoroquinolone-resistant); conditions: Table 2
Description: as §1

[5] = system: S. pneumoniae ASPN001 (Fluoroquinolone-susceptible, ATCC49619); conditions: Table 2
Description: as §1

[6] = system: A. baumannii AABA1009 (Fluoroquinolone-resistant); conditions: Table 2
Description: as §1

[7] = system: A. baumannii AABA1065 (Fluoroquinolone-susceptible); conditions: Table 2
Description: as §1

[8] = system: P. aeruginosa APAE001 (Fluoroquinolone-susceptible, ATCC27853); conditions: Table 2
Description: as §1

[9] = system: S. aureus ASAU001 (Fluoroquinolone-susceptible, ATCC29213); conditions: Table 2
Description: as §1

[10] = system: P. aeruginosa APAE054 (Fluoroquinolone-resistant); conditions: Table 2
Description: as §1

SMILES | MIC ASAU 1031 [1] | MIC ASPN 1027 [2] | MIC AECO 001 [3] | MIC AECO 066 [4] | MIC ASPN 001 [5] | MIC AABA 1009 [6] | MIC AABA 1065 [7] | MIC APAE 001 [8] | MIC ASAU 001 [9] | MIC APAE 054 [10]
O=C(O)c1cn(C2CC2)c2c3c(c(F)cc2c1=O)N1C[C@H](O)C[C@H]1CC=C3 [18/6, (7aR,9R)-4-Cyclopropyl-12-fluoro-9-hydroxy-1-oxo-4,7,7a,8,9,10-hexahydro-1H-pyrrolo[1′,2′:1,7]azepino-[2,3-h]quinoline-2-carboxylic acid] | B (MIC's of greater than 1.0 μg/mL to 8.0 μg/mL = B) | C (MIC's of greater than 8.0 μg/mL = C) | A (MIC's of 1.0 μg/mL or less = A) | C (MIC's of greater than 8.0 μg/mL = C) | A (MIC's of 1.0 μg/mL or less = A) | C (MIC's of greater than 8.0 μg/mL = C) | B (MIC's of greater than 1.0 μg/mL to 8.0 μg/mL = B) | C (MIC's of greater than 8.0 μg/mL = C) | A (MIC's of 1.0 μg/mL or less = A) | C (MIC's of greater than 8.0 μg/mL = C)
O=C(O)c1cn(C2CC2)c2c3c(c(F)cc2c1=O)N1C[C@H](O)C[C@H]1CCC3 [18/8, (7aR,9R)-4-Cyclopropyl-12-fluoro-9-hydroxy-1-oxo-4,5,6,7,7a,8,9,10-octahydro-1H-pyrrolo-[1′,2′:1,7]aze-pino[2,3-h]quinoline-2-carboxylic acid] | B (MIC's of greater than 1.0 μg/mL to 8.0 μg/mL = B) | C (MIC's of greater than 8.0 μg/mL = C) | A (MIC's of 1.0 μg/mL or less = A) | C (MIC's of greater than 8.0 μg/mL = C) | A (MIC's of 1.0 μg/mL or less = A) | C (MIC's of greater than 8.0 μg/mL = C) | B (MIC's of greater than 1.0 μg/mL to 8.0 μg/mL = B) | C (MIC's of greater than 8.0 μg/mL = C) | A (MIC's of 1.0 μg/mL or less = A) | C (MIC's of greater than 8.0 μg/mL = C)
O=C1C[C@H]2CC=Cc3c(c(F)cc4c(=O)c(C(=O)O)cn(C5CC5)c34)N2C1 [18/10, (7aR)-4-Cyclopropyl-12-fluoro-1,9-dioxo-4,7,7a,8,9,10-hexahydro-1H-pyrrolo[1′,2′:1,7]azepino[2,3-h]quino-line-2-carboxylic acid] | C (MIC's of greater than 8.0 μg/mL = C) | C (MIC's of greater than 8.0 μg/mL = C) | B (MIC's of greater than 1.0 μg/mL to 8.0 μg/mL = B) | C (MIC's of greater than 8.0 μg/mL = C) | B (MIC's of greater than 1.0 μg/mL to 8.0 μg/mL = B) | C (MIC's of greater than 8.0 μg/mL = C) | C (MIC's of greater than 8.0 μg/mL = C) | C (MIC's of greater than 8.0 μg/mL = C) | A (MIC's of 1.0 μg/mL or less = A) | C (MIC's of greater than 8.0 μg/mL = C)
O=C(O)c1cn(C2CC2)c2c3c(c(F)cc2c1=O)N1CC(=NO)C[C@H]1CC=C3 [18/11, (7aR,9E)-4-Cyclopropyl-12-fluoro-9-(hydroxyimino)-1-oxo-4,7,7a,8,9,10-hexahydro-1H-pyrrolo[1′,2′:1,7]aze-pino[2,3-h]quinoline-2-carboxylic acid] | A (MIC's of 1.0 μg/mL or less = A) | A (MIC's of 1.0 μg/mL or less = A) | A (MIC's of 1.0 μg/mL or less = A) | C (MIC's of greater than 8.0 μg/mL = C) | A (MIC's of 1.0 μg/mL or less = A) | C (MIC's of greater than 8.0 μg/mL = C) | A (MIC's of 1.0 μg/mL or less = A) | B (MIC's of greater than 1.0 μg/mL to 8.0 μg/mL = B) | A (MIC's of 1.0 μg/mL or less = A) | C (MIC's of greater than 8.0 μg/mL = C)
O=C(O)c1cn(C2CC2)c2c3c(c(F)cc2c1=O)N1CC[C@H](O)[C@H]1CC=C3 [19/5, (7aR,8S)-4-Cyclopropyl-12-fluoro-8-hydroxy-1-oxo-4,7,7a,8,9,10-hexahydro-1H-pyrrolo[1′,2′:1,7]azepino[2,3-h]quinoline-2-carboxylic acid] | C (MIC's of greater than 8.0 μg/mL = C) | C (MIC's of greater than 8.0 μg/mL = C) | B (MIC's of greater than 1.0 μg/mL to 8.0 μg/mL = B) | C (MIC's of greater than 8.0 μg/mL = C) | B (MIC's of greater than 1.0 μg/mL to 8.0 μg/mL = B) | C (MIC's of greater than 8.0 μg/mL = C) | B (MIC's of greater than 1.0 μg/mL to 8.0 μg/mL = B) | C (MIC's of greater than 8.0 μg/mL = C) | A (MIC's of 1.0 μg/mL or less = A) | C (MIC's of greater than 8.0 μg/mL = C)
NC[C@H]1C[C@@H]2CC=Cc3c(c(F)cc4c(=O)c(C(=O)O)cn(C5CC5)c34)N2C1.O=C(O)C(F)(F)F [20/14, (7aS,9R)-9-(Aminomethyl)-4-cyclopropyl-12-fluoro-1-oxo-4,7,7a,8,9,10-hexahydro-1H-pyrrolo[1′,2′:1,7]azepino[2,3-h]quinoline-2-carboxylic acid trifluoroacetate] | C (MIC's of greater than 8.0 μg/mL = C) | C (MIC's of greater than 8.0 μg/mL = C) | A (MIC's of 1.0 μg/mL or less = A) | C (MIC's of greater than 8.0 μg/mL = C) | A (MIC's of 1.0 μg/mL or less = A) | C (MIC's of greater than 8.0 μg/mL = C) | A (MIC's of 1.0 μg/mL or less = A) | B (MIC's of greater than 1.0 μg/mL to 8.0 μg/mL = B) | A (MIC's of 1.0 μg/mL or less = A) | C (MIC's of greater than 8.0 μg/mL = C)
NC[C@H]1C[C@@H]2CCCc3c(c(F)cc4c(=O)c(C(=O)O)cn(C5CC5)c34)N2C1.O=C(O)C(F)(F)F [20/16, (7aS,9R)-9-(Aminomethyl)-4-cyclopropyl-12-fluoro-1-oxo-4,5,6,7,7a,8,9,10-octahydro-1H-pyrrolo[1′,2′:1,7]-azepino[2,3-h]quinoline-2-carboxylic acid trifluoroacetate] | C (MIC's of greater than 8.0 μg/mL = C) | C (MIC's of greater than 8.0 μg/mL = C) | A (MIC's of 1.0 μg/mL or less = A) | C (MIC's of greater than 8.0 μg/mL = C) | A (MIC's of 1.0 μg/mL or less = A) | C (MIC's of greater than 8.0 μg/mL = C) | A (MIC's of 1.0 μg/mL or less = A) | B (MIC's of greater than 1.0 μg/mL to 8.0 μg/mL = B) | A (MIC's of 1.0 μg/mL or less = A) | C (MIC's of greater than 8.0 μg/mL = C)
O=C(O)c1cn(C2CC2)c2c3c(c(F)cc2c1=O)N1C(=O)CC[C@H]1COC3 [21/9, (3aS)-13-Cyclopropyl-8-fluoro-6,10-dioxo-3a,4,5,6,10,13-hexahydro-1H,3H-pyrrolo[2′,1′:3,4]oxazepino-[5,6-h]quinoline-11-carboxylic acid] | C (MIC's of greater than 8.0 μg/mL = C) | C (MIC's of greater than 8.0 μg/mL = C) | B (MIC's of greater than 1.0 μg/mL to 8.0 μg/mL = B) | C (MIC's of greater than 8.0 μg/mL = C) | C (MIC's of greater than 8.0 μg/mL = C) | C (MIC's of greater than 8.0 μg/mL = C) | C (MIC's of greater than 8.0 μg/mL = C) | C (MIC's of greater than 8.0 μg/mL = C) | B (MIC's of greater than 1.0 μg/mL to 8.0 μg/mL = B) | C (MIC's of greater than 8.0 μg/mL = C)
NC[C@@H]1CC2CC=Cc3c(c(F)cc4c(=O)c(C(=O)O)cn(C5CC5)c34)N2C1.O=C(O)C(F)(F)F (stereo partly drawn) [22/17, (9S)-9-(Aminomethyl)-4-cyclopropyl-12-fluoro-1-oxo-4,7,7a,8,9,10-hexahydro-1H-pyrrolo-[1′,2′:1,7]azepino[2,3-h]quinoline-2-carboxylic acid trifluoroacetate] | C (MIC's of greater than 8.0 μg/mL = C) | C (MIC's of greater than 8.0 μg/mL = C) | B (MIC's of greater than 1.0 μg/mL to 8.0 μg/mL = B) | C (MIC's of greater than 8.0 μg/mL = C) | B (MIC's of greater than 1.0 μg/mL to 8.0 μg/mL = B) | C (MIC's of greater than 8.0 μg/mL = C) | B (MIC's of greater than 1.0 μg/mL to 8.0 μg/mL = B) | B (MIC's of greater than 1.0 μg/mL to 8.0 μg/mL = B) | A (MIC's of 1.0 μg/mL or less = A) | C (MIC's of greater than 8.0 μg/mL = C)

Reference: patent publication US20120058989A1, “ANTIBACTERIAL FLUOROQUINOLONE ANALOGS” (Achaogen, Inc., priority 2008, published 2012)
